Laboratory results published in patent US8629166B2, “5-cycloalkyl- or 5-heterocyclyl-nicotinamides” (Hoffmann-La Roche Inc., priority 2011, dated 2014).
pEC50: −log10 of the molar value.

Key:
[1] = molecular target: T1, human CB2 receptor (Homo sapiens, UniProt P34972); assay: CB2 receptor affinity ([3H]-CP-55,940 displacement, HEK cell membranes); assay type: binding; settings: displacement of [3H]-CP-55,940 at 10 μM
T1 construct: expressed in transfected cells; host or cells: human embryonic kidney (HEK) cells, Semliki Forest Virus system, membrane preparation
T1 sequence (P34972 whole entry): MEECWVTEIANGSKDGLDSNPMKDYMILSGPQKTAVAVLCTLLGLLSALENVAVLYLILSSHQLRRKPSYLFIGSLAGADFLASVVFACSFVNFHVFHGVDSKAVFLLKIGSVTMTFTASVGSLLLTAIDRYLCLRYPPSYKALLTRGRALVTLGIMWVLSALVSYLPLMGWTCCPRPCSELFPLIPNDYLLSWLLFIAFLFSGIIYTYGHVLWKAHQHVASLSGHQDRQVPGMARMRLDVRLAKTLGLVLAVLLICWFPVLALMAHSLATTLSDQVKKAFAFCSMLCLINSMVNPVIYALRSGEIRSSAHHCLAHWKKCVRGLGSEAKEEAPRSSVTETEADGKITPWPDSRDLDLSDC
Description: (§1) CB1 and CB2 Receptor Affinity
(§2) The affinity of the compounds of the invention for cannabinoid CB2 receptors was determined using membrane preparations of human embryonic kidney (HEK) cells in which the human CB2 receptor is transiently transfected using a Semliki Forest Virus system in conjunction with [^3H]-CP-55,940 as radioligand. After incubation of freshly prepared cell membrane preparation with the [^3H]-ligand, with or without addition of compounds of the invention, separation of bound and free ligand was performed by filtration over glass fiber filters. Radioactivity on the filter was measured by scintillation counting.
(§3) The ability of the compounds to displace the radioligand [^3H]-CP-55,940 was measured at a concentration of 10 μM and values provided as [% inhibition @ 10 μM] both for the CB1 and CB2 receptor assay, The lower % inhibition is, the lower the likelihood of side effects based on CB1 or CB2 receptor inhibition is.

[2] = molecular target: T2, human CB1 receptor (Homo sapiens, UniProt P21554); assay: CB1 receptor affinity ([3H]-CP-55,940 displacement, HEK cell membranes); assay type: binding; settings: displacement of [3H]-CP-55,940 at 10 μM
T2 construct: expressed in transfected cells; host or cells: human embryonic kidney (HEK) cells, Semliki Forest Virus system, membrane preparation
T2 sequence (P21554 whole entry): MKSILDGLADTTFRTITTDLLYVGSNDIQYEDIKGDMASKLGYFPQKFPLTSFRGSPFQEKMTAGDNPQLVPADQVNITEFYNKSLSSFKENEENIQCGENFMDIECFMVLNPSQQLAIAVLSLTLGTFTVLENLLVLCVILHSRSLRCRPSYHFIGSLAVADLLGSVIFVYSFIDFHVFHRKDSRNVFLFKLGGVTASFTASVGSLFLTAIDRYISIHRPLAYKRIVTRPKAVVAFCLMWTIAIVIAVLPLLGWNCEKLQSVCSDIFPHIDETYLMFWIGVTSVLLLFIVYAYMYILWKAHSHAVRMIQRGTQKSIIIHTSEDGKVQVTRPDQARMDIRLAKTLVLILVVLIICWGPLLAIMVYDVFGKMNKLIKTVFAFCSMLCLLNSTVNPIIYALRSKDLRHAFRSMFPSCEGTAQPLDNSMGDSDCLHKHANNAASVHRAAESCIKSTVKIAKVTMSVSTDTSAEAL
Description: as §1
as §2, with “cannabinoid” for “cannabinoid CB2”, “CB1” for “CB2”, “[3H]-CP-55,940” for “[^3H]-CP-55,940”
as §3

[3] = system: ABCA1 protein; assay: Detection of upregulation of ABCA1 protein in cells (ApoA-I binding, high content image analysis); assay type: cell-based; settings: THP-1 macrophage cells; for pEC50: ABCA1 protein increasing efficacy; for % increase of ABCA1 at 3 μM: compound at 3 μM, 24 hrs
Description: Detection of Upregulation of ABCA1 Protein in Cells
The ability of compounds of the invention to increase the level of ABCA1 protein is determined in replicate cultures of THP-1 macrophage cells in 96-well microplates. Cells are plated at an initial density of 100,000 cells/well in 100 μl medium and differentiated to adherent macrophages with the addition of PMA (100 nM) for 68 hrs in 10% fetal bovine serum, 3 μl/L of b-mercaptoethanol, RPMI-1640 medium. Then, cells are incubated with RPMI-1640 medium containing 1% FCS, 25 μg/ml acetylated LDL, for 24 hours at 37° C. Following incubation with acetylated LDL, cells are washed twice with 50 μl PBS and incubated with 100 μl of RPMI-1640 medium containing the compound of interest solubilized in DMSO for an additional 24 hrs. The final DMSO concentration in presence of cells is maintained at 0.5%. ApoA-I binding assay using High Content Image Analysis is initiated by replacing with fresh medium, RPMI without Phenol Red, 0.2% BSA containing AlexaFluor®647 labeled ApoA-I for 2 h/37° C./5% CO2. Then, cells are fixed with 4% Formaldehyde in PBS (15 min, RT). Following Nuclei are stained with Hoechst solution (3 μM PBS) and Cytoplasm with Cell Mask Blue (2 μg/ml PBS), 15 min, RT. Finally the stained cells are fixed with a second round of formaldehyde treatment. Fixed stained cells are washed and kept in PBS at 4° C. and can be read immediately until one month after preparation.
The Alexa Fluor 647-labeled Apolipoprotein A-I (20 nM) was prepared as follows: Human recombinant Apolipoprotein A-I (ApoA-I) was exchanged to a buffer of 0.02 M NaHCO3 at pH 8.2 on an NAP desalting column (GE Healthcare) and brought to a concentration to 40 μM (1.13 mg/ml) by adjustment with the same buffer. The ApoA-I was fluorescently labeled by incubation with Alexa Fluor carboxylic acid succimidyl ester (Alexa Fluor 647, Invitrogen A-20006) at a 2:1 molar ratio (Alexa to ApoA-I) for 1 h under shaking at RT. The remaining unconjugated label was removed by buffer exchange to 0.02M NaHCO3 at pH 8.2.
Imaging and data collection were performed on an OPERA confocal microplate imaging reader using a 20× water immersion objective and UV360 or 405 laser to identify the cell nuclei and a 635 laser to identify the fluorescent ApoA-I. Eight fields of view are captured per well. Image capture and analysis was performed with the Acapella software. Background fluorescence detected in control wells without ApoA-I was subtracted.
Using XLfit3 program (ID Business Solutions Ltd. UK), the model 205 for Dose Response One Site is used to calculate the EC50 values. […] Particularly, the compounds of the present invention have EC50 values in a range of 0.1 μM to 3 μm.

Compound | CB2 receptor affinity [% inhibition @ 10 μM] [1] | CB1 receptor affinity [% inhibition @ 10 μM] [2] | pEC50 [3] | % increase of ABCA1 at 3 μM [3]
O=C(Nc1cccnc1)c1cnc(OCC(F)(F)F)c(C2=CCCCC2)c1 [Example 1, 5-cyclohex-1-enyl-N-pyridin-3-yl-6-(2,2,2-trifluoro-ethoxy)-nicotinamide] | 5 % inhibition | 33 % inhibition | 6.29 | 
CCN(C(=O)c1cnc(OCC(F)(F)F)c(C2=CCCCC2)c1)C(C)C [Example 2, 5-cyclohex-1-enyl-N-ethyl-N-isopropyl-6-(2,2,2-trifluoro-ethoxy)-nicotinamide] | 3 % inhibition | 37 % inhibition |  | >45% @ 3 μM
O=C(NCc1nc(C(F)(F)F)no1)c1cnc(OCC(F)(F)F)c(C2=CCCCC2)c1 [Example 3, 5-cyclohex-1-enyl-6-(2,2,2-trifluoro-ethoxy)-N-(3-trifluoromethyl-[1,2,4]oxadiazol-5-ylmethyl)-nicotinamide] | −1 % inhibition | 42 % inhibition |  | >45% @ 3 μM
O=C(NCc1nc(C(F)(F)F)no1)c1cnc(OCC(F)(F)F)c(C2CCCCC2)c1 [Example 4, 5-cyclohexyl-6-(2,2,2-trifluoro-ethoxy)-N-(3-trifluoromethyl-[1,2,4]oxadiazol-5-ylmethyl)-nicotinamide] | 2 % inhibition | 31 % inhibition | 6.82 | 
O=C(NCc1nc(C(F)(F)F)no1)c1cnc(OCC(F)(F)F)c(C2=CCOCC2)c1 [Example 5, 5-(3,6-dihydro-2H-pyran-4-yl)-6-(2,2,2-trifluoro-ethoxy)-N-(3-trifluoromethyl-[1,2,4]oxadiazol-5-ylmethyl)-nicotinamide] | −2 % inhibition | 15 % inhibition | 5.53 | 
O=C(Nc1cccnc1)c1cnc(OCC(F)(F)F)c(C2CCCCC2)c1 [Example 6, 5-cyclohexyl-N-pyridin-3-yl-6-(2,2,2-trifluoro-ethoxy)-nicotinamide] | 2 % inhibition | 17 % inhibition | 5.47 | 
O=C(Nc1cccnc1)c1cnc(OCC(F)(F)F)c(C2=CCCC2)c1 [Example 7, 5-cyclopent-1-enyl-N-pyridin-3-yl-6-(2,2,2-trifluoro-ethoxy)-nicotinamide] | 3 % inhibition | 11 % inhibition |  | >45% @ 3 μM
O=C(Nc1cccnc1)c1cnc(OCC(F)(F)F)c(C2CCCC2)c1 [Example 8, 5-cyclopentyl-N-pyridin-3-yl-6-(2,2,2-trifluoro-ethoxy)-nicotinamide] | 13 % inhibition | 49 % inhibition |  | >45% @ 3 μM
O=C(Nc1cccnn1)c1cnc(OCC(F)(F)F)c(C2CCCC2)c1 [Example 9, 5-cyclopentyl-N-pyridazin-3-yl-6-(2,2,2-trifluoro-ethoxy)-nicotinamide] | 9 % inhibition | 7 % inhibition | 5.00 | 
O=C(NCc1ccn(CC2CC2)n1)c1cnc(OCC(F)(F)F)c(C2CCCCC2)c1 [Example 15, 5-cyclohexyl-N-(1-cyclopropylmethyl-1H-pyrazol-3-ylmethyl)-6-(2,2,2-trifluoro-ethoxy)-nicotinamide] | 14 % inhibition | 49 % inhibition |  | >45% @ 3 μM
O=C(Nc1cncnc1)c1cnc(OCC(F)(F)F)c(C2CCCCC2)c1 [Example 19, 5-cyclohexyl-N-pyrimidin-5-yl-6-(2,2,2-trifluoro-ethoxy)-nicotinamide] | −11 % inhibition | 20 % inhibition |  | >45% @ 3 μM

Now from value to compound, other results behind:

CB2 receptor affinity [% inhibition @ 10 μM] [1] | CB1 receptor affinity [% inhibition @ 10 μM] [2] | Compound | pEC50 [3] | % increase of ABCA1 at 3 μM [3]
−9 % inhibition | 9 % inhibition | O=C(Nc1ccccn1)c1cnc(OCC(F)(F)F)c(C2CCCC2)c1 [Example 10, 5-cyclopentyl-N-pyridin-2-yl-6-(2,2,2-trifluoro-ethoxy)-nicotinamide] | 6.00 | 
−3 % inhibition | 29 % inhibition | O=C(NCc1nc(C(F)(F)F)no1)c1cnc(OCC(F)(F)F)c(C2CCCC2)c1 [Example 11, 5-cyclopentyl-6-(2,2,2-trifluoro-ethoxy)-N-(3-trifluoromethyl-[1,2,4]oxadiazol-5-ylmethyl)-nicotinamide] |  | >45% @ 3 μM
12 % inhibition | 29 % inhibition | COc1cc(CNC(=O)c2cnc(OCC(F)(F)F)c(C3CCCC3)c2)on1 [Example 12, 5-cyclopentyl-N-(3-methoxy-isoxazol-5-ylmethyl)-6-(2,2,2-trifluoro-ethoxy)-nicotinamide] |  | >45% @ 3 μM
5 % inhibition | 45 % inhibition | COc1cc(CNC(=O)c2cnc(OCC(F)(F)F)c(C3CCCCC3)c2)on1 [Example 13, 5-cyclohexyl-N-(3-methoxy-isoxazol-5-ylmethyl)-6-(2,2,2-trifluoro-ethoxy)-nicotinamide] |  | >45% @ 3 μM
3 % inhibition | 34 % inhibition | Cc1noc(CNC(=O)c2cnc(OCC(F)(F)F)c(C3CCCCC3)c2)n1 [Example 14, 5-cyclohexyl-N-(3-methyl-[1,2,4]oxadiazol-5-ylmethyl)-6-(2,2,2-trifluoro-ethoxy)-nicotinamide] |  | >45% @ 3 μM
5 % inhibition | 25 % inhibition | O=C(NCc1csc(C2CC2)n1)c1cnc(OCC(F)(F)F)c(C2CCCCC2)c1 [Example 16, 5-cyclohexyl-N-(2-cyclopropyl-thiazol-4-ylmethyl)-6-(2,2,2-trifluoro-ethoxy)-nicotinamide] |  | >45% @ 3 μM
9 % inhibition | 25 % inhibition | O=C(NCc1ccn(CC2CC2)n1)c1cnc(OCC(F)(F)F)c(C2CCCC2)c1 [Example 17, 5-cyclopentyl-N-(1-cyclopropylmethyl-1H-pyrazol-3-ylmethyl)-6-(2,2,2-trifluoro-ethoxy)-nicotinamide] |  | >45% @ 3 μM
14 % inhibition | 17 % inhibition | O=C(NCc1csc(C2CC2)n1)c1cnc(OCC(F)(F)F)c(C2CCCC2)c1 [Example 18, 5-cyclopentyl-N-(2-cyclopropyl-thiazol-4-ylmethyl)-6-(2,2,2-trifluoro-ethoxy)-nicotinamide] |  | >45% @ 3 μM
